The target of the assay is His-tagged recombinant human Gal-3 (hGal-3) (Homo sapiens (Human), UniProt P17931). In words: Gal-3 HTRF assay (hGal-3 / B-ASF). In kind it is binding. The note with it: 15 nM hGal-3, 15 nM B-ASF, three replicates, room temperature, read-out: hGal3 IC50. How it is done: ASSAY BUFFER Composition: 25 mM HEPES, 100 mM NaCl, 0.005% Tween 20, 0.05% BSA prepared in sterile water (all reagents from Sigma)
His-tagged recombinant human Gal-3 (hGal-3), sequence (P17931 whole entry): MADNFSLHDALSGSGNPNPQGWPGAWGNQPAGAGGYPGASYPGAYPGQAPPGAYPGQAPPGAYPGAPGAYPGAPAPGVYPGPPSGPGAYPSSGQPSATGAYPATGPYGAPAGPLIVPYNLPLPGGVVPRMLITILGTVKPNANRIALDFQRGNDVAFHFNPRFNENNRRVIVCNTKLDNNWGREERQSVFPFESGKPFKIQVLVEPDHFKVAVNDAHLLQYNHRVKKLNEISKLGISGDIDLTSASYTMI
Positive Control: 100% DMSO (1 μl)+His-tagged hGal-3 (20 μL)+B-ASF (20 μl)+Anti-His Terbium Antibody (5 μl)+Strep d2 Antibody (5 μl).
Negative Control: 100% DMSO (1 μl)+His-tagged hGal-3 (20μL)+Anti His Terbium Antibody (5 μl)+Strep d2 Aantibody (5 μl).
PROTOCOL: The Gal-3 assays were performed in 384 white Opti plates in three replicates at room temperature with gentle shaking at 250-300 rpm From the original stocks, […] working stock concentrations of His-tagged recombinant human Gal-3 (hGal-3) and that of B-ASF were prepared. From the working stock, 20 μl of hGal-3 (15 nM) and 20 μl B-ASF (15 nM) were added to the plates. In Negative Control, only hGal-3 was added. A concentration range of 50× working stocks were prepared for the compounds in 100% DMSO. Aliquots of 1 uL of the compounds were added to the wells and pre-incubated with 20 μl hGal-3 per well for 30 minutes Then 20 μl B-ASF were added and incubated for another 1 hour. To detect the signal, 5 μ(final conc. of 1.0 nM) terbium labelled Anti-His antibody was added and incubated for 30 min followed by adding 5 μ(final conc. of 20 nM) Streptavidin d2 and incubation for another 1 hour. The assay signal was detected using HTRF screen protocol (Excitation wavelength=340 nm, emission wavelength=615 nm/665 nm) on Envision 2104 Multilabel Reader. Data analysed using Toolset and Curve Master. Results are reported in the experimental section (IC50 in μM).
A general note: Time-resolved FRET reads energy transfer from a long-lived donor to a nearby acceptor.
As to `O=C(O)CO[C@@H]1[C@@H](n2cc(-c3cc(F)c(F)c(F)c3)nn2)[C@@H](O)[C@@H](CO)O[C@@H]1[S+]([O-])c1ccc(Cl)c(Cl)c1` (single isomer, unassigned) [18 (isomer-1)], the 50% inhibitory concentration (IC50) stood at 17 nM. With `O=C(O)CO[C@@H]1[C@@H](n2cc(-c3cc(F)c(F)c(F)c3)nn2)[C@@H](O)[C@@H](CO)O[C@@H]1[S+]([O-])c1ccc(Cl)c(Cl)c1` (single isomer, unassigned) [18 (isomer-2)], the IC50 worked out at 100 nM. Regarding `CO[C@@H]1[C@@H](n2cc(-c3cc(F)c(F)c(F)c3)nn2)[C@@H](O)[C@@H](CO)O[C@@H]1[S+]([O-])c1ccc(Cl)c(Cl)c1` (single isomer, unassigned) [Example 2 (isomer-1)], the IC50 turned out to be 29 nM.

Regarding `CO[C@@H]1[C@@H](n2cc(-c3cc(F)c(F)c(F)c3)nn2)[C@@H](O)[C@@H](CO)O[C@@H]1[S+]([O-])c1ccc(Cl)c(Cl)c1` (single isomer, unassigned) [Example 2 (isomer-2)], the IC50 came to 155 nM. In the case of `CCO[C@@H]1[C@@H](n2cc(-c3cc(F)c(F)c(F)c3)nn2)[C@@H](O)[C@@H](CO)O[C@@H]1[S+]([O-])c1ccc(Cl)c(Cl)c1` (single isomer, unassigned) [Example 9 (isomer-1)] it was 100 nM; in that of `CCO[C@@H]1[C@@H](n2cc(-c3cc(F)c(F)c(F)c3)nn2)[C@@H](O)[C@@H](CO)O[C@@H]1[S+]([O-])c1ccc(Cl)c(Cl)c1` (single isomer, unassigned) [Example 9 (isomer-2)], 340 nM. For `CC(O[C@@H]1[C@@H](n2cc(-c3cc(F)c(F)c(F)c3)nn2)[C@@H](O)[C@@H](CO)O[C@@H]1Sc1ccc(Cl)c(Cl)c1)C(=O)O` (single isomer, unassigned) [Example 38 (isomer-1)], the IC50 came to 150 nM. As for `CC(O[C@@H]1[C@@H](n2cc(-c3cc(F)c(F)c(F)c3)nn2)[C@@H](O)[C@@H](CO)O[C@@H]1Sc1ccc(Cl)c(Cl)c1)C(=O)O` (single isomer, unassigned) [Example 38 (isomer-2)], the IC50 was 40 nM.

Regarding `CC(O[C@@H]1[C@@H](n2cc(-c3cc(F)c(F)c(F)c3)nn2)[C@@H](O)[C@@H](CO)O[C@@H]1S(=O)(=O)c1ccc(Cl)c(Cl)c1)C(=O)O` (single isomer, unassigned) [Example 39 (isomer-1)], the IC50 was found to be 360 nM. The value for `CC(O[C@@H]1[C@@H](n2cc(-c3cc(F)c(F)c(F)c3)nn2)[C@@H](O)[C@@H](CO)O[C@@H]1S(=O)(=O)c1ccc(Cl)c(Cl)c1)C(=O)O` (single isomer, unassigned) [Example 39 (isomer-2)] was 20 nM; that for `OC[C@H]1O[C@H](Sc2ccc(Cl)c(Cl)c2)[C@H](F)[C@@H](n2cc(-c3cc(F)c(F)c(F)c3)nn2)[C@H]1O` (single isomer, unassigned) [Example 62 (isomer-1)] was 2200 nM. The value for `OC[C@H]1O[C@@H](Sc2ccc(Cl)c(Cl)c2)[C@H](F)[C@@H](n2cc(-c3cc(F)c(F)c(F)c3)nn2)[C@H]1O` (single isomer, unassigned) [Example 62 (isomer-2)] was 10000 nM; that for `CO[C@@H]1[C@@H](n2cc(-c3cc(F)c(F)c(F)c3)nn2)[C@@H](O)[C@@H](CO)O[C@@H]1Sc1ccc(Cl)c(Cl)c1` [Example 1, (2R,3R,4S,5R,6R)-6-((3,4-dichlorophenyl)thio)-2-(hydroxymethyl)-5-methoxy-4-(4-(3,4,5-trifluorophenyl)-1H-1,2,3-triazol-1-yl)tetrahydro-2H-pyran-3-ol] was 700 nM; that for `CO[C@@H]1[C@@H](n2cc(-c3cc(F)c(F)c(F)c3)nn2)[C@@H](O)[C@@H](CO)O[C@@H]1S(=O)(=O)c1ccc(Cl)c(Cl)c1` [Example 3, (2R,3R,4S,5R,6R)-6-((3,4-dichlorophenyl)sulfonyl)-2-(hydroxymethyl)-5-methoxy-4-(4-(3,4,5-trifluorophenyl)-1H-1,2,3-triazol-1-yl)tetrahydro-2H-pyran-3-ol] was 112 nM. In the case of `CCO[C@@H]1[C@@H](n2cc(-c3cc(F)c(F)c(F)c3)nn2)[C@@H](O)[C@@H](CO)O[C@@H]1Sc1ccc(Cl)c(Cl)c1` [Example 4, (2R,3R,4S,5R,6R)-6-((3,4-dichlorophenyl)thio)-5-ethoxy-2-(hydroxymethyl)-4-(4-(3,4,5-trifluorophenyl)-1H-1,2,3-triazol-1-yl)tetrahydro-2H-pyran-3-ol] it was 1050 nM; in that of `CCO[C@@H]1[C@@H](n2cc(-c3cc(F)c(F)c(F)c3)nn2)[C@@H](O)[C@@H](CO)O[C@@H]1S(=O)(=O)c1ccc(Cl)c(Cl)c1` [Example 10, (2R,3R,4S,5R,6R)-6-((3,4-dichlorophenyl)sulfonyl)-5-ethoxy-2-(hydroxymethyl)-4-(4-(3,4,5-trifluorophenyl)-1H-1,2,3-triazol-1-yl)tetrahydro-2H-pyran-3-ol], 200 nM; in that of `COCCO[C@@H]1[C@@H](n2cc(-c3cc(F)c(F)c(F)c3)nn2)[C@@H](O)[C@@H](CO)O[C@@H]1[S@+]([O-])c1ccc(Cl)c(Cl)c1` [Example 11, (2R,3R,4S,5R,6R)-6-((R)-(3,4-dichlorophenyl)sulfinyl)-2-(hydroxymethyl)-5-(2-methoxyethoxy)-4-(4-(3,4,5-trifluorophenyl)-1H-1,2,3-triazol-1-yl)tetrahydro-2H-pyran-3-ol], 56 nM.

Regarding `COCCO[C@@H]1[C@@H](n2cc(-c3cc(F)c(F)c(F)c3)nn2)[C@@H](O)[C@@H](CO)O[C@@H]1S(=O)(=O)c1ccc(Cl)c(Cl)c1` [Example 12, (2R,3R,4S,5R,6R)-6-((3,4-dichlorophenyl)sulfonyl)-2-(hydroxymethyl)-5-(2-methoxyethoxy)-4-(4-(3,4,5-trifluorophenyl)-1H-1,2,3-triazol-1-yl)tetrahydro-2H-pyran-3-ol], the half-inhibitory concentration (IC50) turned out to be 130 nM. In the case of `[O-][N+]1(CCO[C@@H]2[C@@H](n3cc(-c4cc(F)c(F)c(F)c4)nn3)[C@@H](O)[C@@H](CO)O[C@@H]2Sc2ccc(Cl)c(Cl)c2)CCOCC1` [Example 13, 4-(2-(((2R,3R,4S,5R,6R)-2-((3,4-dichlorophenyl)thio)-5-hydroxy-6-(hydroxymethyl)-4-(4-(3,4,5-trifluorophenyl)-1H-1,2,3-triazol-1-yl)tetrahydro-2H-pyran-3-yl)oxy)ethyl)morpholine 4-oxide], the IC50 stood at 50 nM. The value for `CCOC(=O)CO[C@@H]1[C@@H](n2cc(-c3cc(F)c(F)c(F)c3)nn2)[C@@H](O)[C@@H](CO)O[C@@H]1Sc1ccc(Cl)c(Cl)c1` [Example 14, ethyl 2-(((2R,3R,4S,5R,6R)-2-((3,4-dichlorophenyl)thio)-5-hydroxy-6-(hydroxymethyl)-4-(4-(3,4,5-trifluorophenyl)-1H-1,2,3-triazol-1-yl)tetrahydro-2H-pyran-3-yl)oxy)acetate] was 380 nM; that for `N#CCO[C@@H]1[C@@H](n2cc(-c3cc(F)c(F)c(F)c3)nn2)[C@@H](O)[C@@H](CO)O[C@@H]1Sc1ccc(Cl)c(Cl)c1` [Example 15, 2-(((2R,3R,4S,5R,6R)-2-((3,4-dichlorophenyl)thio)-5-hydroxy-6-(hydroxymethyl)-4-(4-(3,4,5-trifluorophenyl)-1H-1,2,3-triazol-1-yl)tetrahydro-2H-pyran-3-yl)oxy)acetonitrile] was 230 nM; that for `CCOC(=O)CO[C@@H]1[C@@H](n2cc(-c3cc(F)c(F)c(F)c3)nn2)[C@@H](O)[C@@H](CO)O[C@@H]1[S@@+]([O-])c1ccc(Cl)c(Cl)c1` [Example 16, ethyl 2-(((2R,3R,4S,5R,6R)-2-((S)-(3,4-dichlorophenyl)sulfinyl)-5-hydroxy-6-(hydroxymethyl)-4-(4-(3,4,5-trifluorophenyl)-1H-1,2,3-triazol-1-yl)tetrahydro-2H-pyran-3-yl)oxy)acetate] was 25 nM. The value for `CCOC(=O)CO[C@@H]1[C@@H](n2cc(-c3cc(F)c(F)c(F)c3)nn2)[C@@H](O)[C@@H](CO)O[C@@H]1S(=O)(=O)c1ccc(Cl)c(Cl)c1` [Example 17, ethyl 2-(((2R,3R,4S,5R,6R)-2-((3,4-dichlorophenyl)sulfonyl)-5-hydroxy-6-(hydroxymethyl)-4-(4-(3,4,5-trifluorophenyl)-1H-1,2,3-triazol-1-yl)tetrahydro-2H-pyran-3-yl)oxy)acetate] was 190 nM.

Take `O=C(O)CO[C@@H]1[C@@H](n2cc(-c3cc(F)c(F)c(F)c3)nn2)[C@@H](O)[C@@H](CO)O[C@@H]1S(=O)(=O)c1ccc(Cl)c(Cl)c1` [Example 19, 2-(((2R,3R,4S,5R,6R)-2-((3,4-dichlorophenyl)sulfonyl)-5-hydroxy-6-(hydroxymethyl)-4-(4-(3,4,5-trifluorophenyl)-1H-1,2,3-triazol-1-yl)tetrahydro-2H-pyran-3-yl)oxy)acetic acid]: the concentration for half-maximal inhibition (IC50) stood at 60 nM.

Usually IC50 stands for the concentration that gives 50% inhibition.

The values are drawn from patent US11072626B2, “Small molecule inhibitors of Galectin-3” (BRISTOL-MYERS SQUIBB COMPANY, priority 2017, dated 2021).
